Assay results from PMC8909834, “An Orally Bioavailable and Highly Efficacious Inhibitor of CDK9/FLT3 for the Treatment of Acute Myeloid Leukemia” (Cancers, 2022).
Where two headings read alike, the source gives them in different places.

Tests used:
[1] = Pharmacokinetics in mice; type: in vivo, BALB/c hairy mice; conditions: both sexes, BALB/c hairy, mouse; for AUC / Cmax / Tmax / half-life: ± standard error of the estimate; for half-life: read-out: t½ (converted); for bioavailability: po, read-out: F (oral bioavailability)
Method: Pharmacokinetics. The pharmacokinetics of CDDD11-8 was determined in mice after single oral (PO) and intravenous (IV) doses. CDDD11-8 was administered at a dose of 10 or 100 mg/kg PO or 2 mg/kg IV to BALB/c hairy mice (n = 10 per route of administration; both male and female). The IV dose consisted of CDDD11-8 dissolved in 10/90 N-methyl-2-pyrrolidone (NMP)/acetate buffer (pH 4.5), while the PO doses of CDDD11-8 were dissolved in acetate buffer at pH 4.74. At nominal times, up to three blood samples were collected from individual mice at non-consecutive times from the right cheek, left cheek, and heart of an individual mouse. The concentrations in these samples were measured by validated LC-MS/MS methods (limit of quantification = 5 ng/mL). Pharmacokinetic parameters were estimated after fitting compartmental models to the concentration–time data (Phoenix, Certara, NJ, USA). Specifically, a one-compartmental kinetic model with first-order input was used after an oral dose, and a two-compartmental model was fitted to the IV data. Acceptability of models was evaluated from values for Akaike Information Criterion (AIC), Schwarz’s Bayesian Criterion (SIB), and % Coefficient of Variance (CV) for parameters, where lower values were indicative of a better fit. Other considerations were variances in the concentrations of quality control samples and visual inspection of model fit. Oral bioavailability (F) was calculated from values of AUC after PO and IV administration after correcting for the differences in doses.

[2] = test system: MV4-11 cells; test: Cell cycle analysis (PI, flow cytometry); type: cell-based; conditions: 24 h
Method: (§1) Detection of apoptosis and cell cycle analysis. Detection of apoptosis and cell cycle analysis were performed as described previously. Cells (1 × 10^5 cells/mL) were seeded into a six-well plate (Corning) and incubated overnight at 37 °C, 5% CO2 prior to incubation with different concentrations of CDDD11-8 or control (0.1% final DMSO concentration) for 6, 24, or 72 h. For washout experiments, cells were incubated with compounds for 6 h, then washed three times with 1 × PBS interspersed with centrifugation at 300× g for 5 min to remove compound. After incubation at 37 °C under 5% CO2, cells were centrifuged at 300× g for 5 min to form a pellet, washed with PBS, and incubated with Annexin V/PI (Becton Dickenson, Franklin Lakes, NJ, USA) for 15 min in the dark. For cell cycle analysis, cells were fixed with 70% ethanol (v/v, 4 °C) and incubated in the dark with cell cycle staining solution (50 µg/mL PI, 0.1 mg/mL RNase A, 0.05% Triton X-100) for 1.5 h. Samples were analyzed using a CytoFlex flow cytometer (Beckman Coulter, Brea, CA, USA). Data were analyzed with CytExpert software version 2.1 (Beckman Coulter, Brea, CA, USA).

[3] = test system: MOLM-13 cells; test: Cell cycle analysis (PI, flow cytometry); type: cell-based; conditions: MOLM-13, 1 µM, 24 h
Method: as §1

[4] = Dissociation constant by PH metric assay; type: physicochemical

With `Cc1cnc(N[C@H]2CC[C@H](N)CC2)nc1-c1cnc2ccc(-c3ccccc3)cn12` [CDDD11-8] the concentration at 8.5 h ([1]; plasma, PO 10 mg/kg, 8.5 h, read-out: Plasma Conc.) was 1.8 ng/mL, the concentration at 9.7 h ([1]; plasma, PO 10 mg/kg, 9.7 h, read-out: Plasma Conc.) was 1 ng/mL and the concentration at 15.8 h ([1]; plasma, PO 10 mg/kg, 15.8 h, read-out: Plasma Conc.) was 0 ng/mL. The concentration at 21 h ([1]; plasma, PO 10 mg/kg, 21.0 h, read-out: Plasma Conc.) was 0 ng/mL, the concentration at 24.6 h ([1]; plasma, PO 10 mg/kg, read-out: Plasma Conc.) was 0 ng/mL and the concentration at 0.1 h ([1]; plasma, PO 100 mg/kg, 0.10 h, read-out: Plasma Conc.) was 810 ng/mL. The concentration at 0.38 h ([1]; plasma, PO 100 mg/kg, 0.38 h, read-out: Plasma Conc.) was 925 ng/mL, the concentration at 0.73 h ([1]; plasma, PO 100 mg/kg, 0.73 h, read-out: Plasma Conc.) was 2660 ng/mL and the concentration at 1.2 h ([1]; plasma, PO 100 mg/kg, 1.2 h, read-out: Plasma Conc.) was 1810 ng/mL. For the same compound, the concentration at 1.9 h ([1]; plasma, PO 100 mg/kg, 1.9 h, read-out: Plasma Conc.) was 3010 ng/mL, the concentration at 2.6 h ([1]; plasma, PO 100 mg/kg, 2.6 h, read-out: Plasma Conc.) was 3680 ng/mL and the concentration at 2.9 h ([1]; plasma, PO 100 mg/kg, 2.9 h, read-out: Plasma Conc.) was 2480 ng/mL. For the same compound, the concentration at 4.9 h ([1]; plasma, PO 100 mg/kg, 4.9 h, read-out: Plasma Conc.) was 4830 ng/mL, the concentration at 6.1 h ([1]; plasma, PO 100 mg/kg, 6.1 h, read-out: Plasma Conc.) was 2160 ng/mL and the concentration at 7 h ([1]; plasma, PO 100 mg/kg, 7.0 h, read-out: Plasma Conc.) was 881 ng/mL. The concentration at 7.8 h ([1]; plasma, PO 100 mg/kg, 7.8 h, read-out: Plasma Conc.) was 717 ng/mL, the concentration at 8.3 h ([1]; plasma, PO 100 mg/kg, 8.3 h, read-out: Plasma Conc.) was 1200 ng/mL and the concentration at 8.9 h ([1]; plasma, PO 100 mg/kg, 8.9 h, read-out: Plasma Conc.) was 854 ng/mL. For the same compound, the concentration at 9.6 h ([1]; plasma, PO 100 mg/kg, 9.6 h, read-out: Plasma Conc.) was 248 ng/mL, the concentration at 16 h ([1]; plasma, PO 100 mg/kg, 16.0 h, read-out: Plasma Conc.) was 77 ng/mL and the concentration at 22.1 h ([1]; plasma, PO 100 mg/kg, 22.1 h, read-out: Plasma Conc.) was 153 ng/mL. It also gave a concentration at 24.6 h ([1]; plasma, PO 100 mg/kg, read-out: Plasma Conc.) of 74 ng/mL, a concentration at 29 h ([1]; plasma, PO 100 mg/kg, 29.0 h, read-out: Plasma Conc.) of 62 ng/mL and a concentration at 41.2 h ([1]; plasma, PO 100 mg/kg, 41.2 h, read-out: Plasma Conc.) of 0 ng/mL. For the same compound, the Vd ([1]; plasma, intravenous, 2 mg/kg, read-out: volume of distribution) was 1.71 L/kg, the AUC ([1]; plasma, oral 10 mg/kg) was 1360 ± 249 ng·h/mL and the Cmax ([1]; plasma, oral 10 mg/kg) was 496 ± 108 ng/mL. For the same compound, the Tmax ([1]; plasma, oral 10 mg/kg) was 1 ± 0.1 h, the half-life ([1]; plasma, oral 10 mg/kg) was 0.68 ± 0.3 h and the AUC ([1]; plasma, oral 100 mg/kg) was 25400 ng·h/mL. For the same compound, the Cmax ([1]; plasma, oral 100 mg/kg) was 3600 ± 822 ng/mL, the Tmax ([1]; plasma, oral 100 mg/kg) was 2 ± 0.6 h and the half-life ([1]; plasma, oral 100 mg/kg) was 6.8 ± 3.7 h. It also gave a bioavailability ([1]; plasma, 10 mg/kg, oral 10 mg/kg) of ~30%, a bioavailability ([1]; plasma, 100 mg/kg, oral 100 mg/kg) of 56% and a clearance ([1]; whole blood, intravenous, 2 mg/kg, plasma clearance divided by B/P, read-out: blood clearance (converted)) of 51.7 mL/min/kg. For the same compound, the “increase in the G1 population (increment)” value ([2]; MV4-11, 0.3 µM) was 16%, the “increase of sub-G1 cell population” value ([2]; MV4-11, 1 µM) was “greater than 40 fold” and the “increase of sub-G1 cell population” value [3] was “greater than 40 fold”. The pKa ([4]; first of three values) was 2.75, the pKa ([4]; second of three values) was 4.95 and the pKa ([4]; third of three values) was 9.89.
